Measured values: patent US20020183309A1, “Novel amines as histamine-3 receptor ligands and their therapeutic applications” (priority 2001, published 2002)

Target: T1, histamine-3 receptors (H3 receptor) (Rattus norvegicus, UniProt Q9QYN8)
T1 construct: from tissue; host or cells: male Sprague-Dawley rat brain cortex membranes
Experiment: (3H)-N-α-methylhistamine binding to rat cortical membranes
Conditions: not given
Procedure: Briefly, male Sprague-Dawley rat brain cortices were homogenized (1 g tissue/10 mL buffer) in 50 mM Tris-HCl/5 mM EDTA containing protease inhibitor cocktail (Calbiochem) using a polytron set at 20,500 rpm. Homogenates were centrifuged for 20 minutes at 40,000×g. The supernatant was decanted, and pellets were weighed. The pellet was resuspended by polytron homogenization in 40 mL 50 mM Tris-HCl/5 mM EDTA with protease inhibitors and centrifuged for 20 minutes at 40,000×g. […] Rat cortical membranes (12 mg wet weight/tube) were incubated with (^3H)-N-α-methylhistamine (˜0.6 nM) with or without H3 receptor antagonists in a total incubation volume of 0.5 mL of 50 mM Tris-HCl/5 mM EDTA (pH 7.7). Test compounds were dissolved in DMSO to provide a 20 mM solution, serially diluted and then added to the incubation mixtures prior to initiating the incubation assay by addition of the membranes. Thioperamide (3 μM) was used to determine nonspecific binding. Binding incubations were conducted for 30 minutes at 25° C. and terminated by addition of 2 mL of ice cold 50 mM Tris-HCl (pH 7.7) and filtration through 0.3% polyethylenimine-soaked Unifilter plates (Packard). These filters were washed 4 additional times with 2 mL of ice-cold 50 mM Tris-HCl and dried for 1 hour. Radioactivity was determined using liquid scintillation counting techniques. Results were analyzed by Hill transformation and Ki values were determined using the Cheng-Prusoff equation.

T1 sequence (Q9QYN8 whole entry): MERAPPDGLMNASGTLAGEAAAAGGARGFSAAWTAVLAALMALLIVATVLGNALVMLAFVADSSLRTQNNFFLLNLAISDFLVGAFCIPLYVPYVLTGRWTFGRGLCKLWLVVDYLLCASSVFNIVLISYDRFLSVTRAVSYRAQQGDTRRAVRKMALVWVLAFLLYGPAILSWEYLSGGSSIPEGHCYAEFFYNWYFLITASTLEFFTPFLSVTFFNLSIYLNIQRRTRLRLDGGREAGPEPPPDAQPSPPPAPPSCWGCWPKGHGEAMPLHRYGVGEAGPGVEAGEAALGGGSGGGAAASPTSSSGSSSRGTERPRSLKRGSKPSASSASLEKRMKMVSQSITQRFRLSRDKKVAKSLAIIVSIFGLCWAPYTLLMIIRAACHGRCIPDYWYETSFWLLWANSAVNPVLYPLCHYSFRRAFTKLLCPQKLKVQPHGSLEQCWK

Work on `CN(C)[C@H]1CCN(CCc2cc3cc(-c4ccc(C#N)cc4)ccc3o2)C1` [Example 9, 4-(2-{2-[(3S)-3-(dimethylamino)pyrrolidinyl]ethyl}-1-benzofuran-5-yl)benzonitrile] yielded a Ki of 136 nM.

Same assay, conditions: male Sprague-Dawley rat brain cortical membranes; (3H)-N-α-methylhistamine ~0.6 nM; 30 minutes at 25° C.; Cheng-Prusoff equation; read-out: Ki

First: 4-(2-{2-[(2R,6S)-2,6-dimethylpiperidinyl]ethyl}-1-benzofuran-5-yl)benzonitrile [Example 11]
Second: 4-[4-(2-{2-[(2R,6S)-2,6-dimethylpiperidinyl]ethyl}-1-benzofuran-5-yl)benzoyl]morpholine [Example 29]
The Ki of the first is 2.3-fold higher: 19.3 nM for the first, 8.46 nM for the second. The second binds more tightly here.

Compared with `CCN(CC)CCc1cc2cc(-c3ccc(C#N)cc3)ccc2o1` [Example 5, 4-{2-[2-(diethylamino)ethyl]-1-benzofuran-5-yl}benzonitrile], `N#Cc1ccc(-c2ccc3oc(CCN4CC[C@@H](O)C4)cc3c2)cc1` [Example 7, 4-(2-{2-[(3R)-3-hydroxypyrrolidinyl]ethyl}-1-benzofuran-5-yl)benzonitrile] is 1.9-fold higher in Ki: 49.4 nM for the first, 94.9 nM for the second. The first binds more tightly here.

Compared with `C[C@@H]1CC[C@@H](C)N1CCc1cc2cc(-c3ccc(C#N)cc3)ccc2o1` [Example 12, 4-(2-{2-[(2R,5R)-2,5-dimethylpyrrolidinyl]ethyl}-1-benzofuran-5-yl)benzonitrile], `CC1CCN(CCc2cc3cc(-c4ccc(C#N)cc4)ccc3o2)CC1` [Example 14, 4-{2-[2-(4-methyl-1-piperidinyl)ethyl]-1-benzofuran-5-yl}benzonitrile] is 1.5-fold lower in Ki: 38.4 nM for the first, 25.1 nM for the second. The second binds more tightly here.

First: COC(=O)[C@@H]1CCCN1CCc1cc2cc(-c3ccc(C#N)cc3)ccc2o1 [Example 15, 4-(2-{2-[2-pyrrolidinemethyl carboxylate]ethyl}-1-benzofuran-5-yl)benzonitrile]
Second: N#Cc1ccc(-c2ccc3oc(CCN4CC=CCC4)cc3c2)cc1 [Example 16, 4-{2-[2-(3,6-dihydro-1(2H)-pyridinyl)ethyl]-1-benzofuran-5-yl}benzonitrile]
The Ki of the first is 11-fold higher: 1000 nM for the first, 92.2 nM for the second. The second binds more tightly here.

`CN(CCc1cc2cc(-c3ccc(C#N)cc3)ccc2o1)C(C)(C)C` [Example 18, 4-(2-{2-[tert-butyl (methyl)amino]ethyl}-1-benzofuran-5-yl)benzonitrile] and `CC(C)N(C)CCc1cc2cc(-c3ccc(C#N)cc3)ccc2o1` [Example 19, 4-(2-{2-[isopropyl(methyl)amino]ethyl}-1-benzofuran-5-yl)benzonitrile] are within 1.5-fold of each other in Ki: 60.5 nM for the first, 77.7 nM for the second.

Going from `CC(C)CN(C)CCc1cc2cc(-c3ccc(C#N)cc3)ccc2o1` [Example 20, 4-(2-{2-[isobutyl(methyl)amino]ethyl}-1-benzofuran-5-yl)benzonitrile] to `CCN(CCc1cc2cc(-c3ccc(C#N)cc3)ccc2o1)C(C)C` [Example 21, 4-(2-{2-[ethyl(isopropyl)amino]ethyl}-1-benzofuran-5-yl)benzonitrile], the Ki falls from 180 nM to 44.4 nM (4.1-fold).

Going from `CCCN(CC)CCc1cc2cc(-c3ccc(C#N)cc3)ccc2o1` [Example 22, 4-(2-{2-[ethyl(propyl)amino]ethyl}-1-benzofuran-5-yl)benzonitrile] to `CC1CCCN1CCc1cc2cc(-c3ccc(C(=O)N4CCOCC4)cc3)ccc2o1` (stereo not drawn) [Example 23, 4-(4-{2-[2-(2-methyl-1-pyrrolidinyl)ethyl]-1-benzofuran-5-yl}benzoyl)morpholine], the Ki falls from 69.2 nM to 1.97 nM (35-fold).

`O=C(c1ccc(-c2ccc3oc(CCN4CCCCC4)cc3c2)cc1)N1CCOCC1` [Example 24, 4-(4-{2-[2-(1-piperidinyl)ethyl]-1-benzofuran-5-yl}benzoyl)morpholine] and `CCN(CC)CCc1cc2cc(-c3ccc(C(=O)N4CCOCC4)cc3)ccc2o1` [Example 25, N,N-diethyl-N-(2-{5-[4-(4-morpholinylcarbonyl)phenyl]-1-benzofuran-2-yl}ethyl)amine] are within 1.5-fold of each other in Ki: 11.7 nM for the first, 14.4 nM for the second.

Compared with `CC1CCCCN1CCc1cc2cc(-c3ccc(C(=O)N4CCOCC4)cc3)ccc2o1` (stereo not drawn) [Example 26, 4-(4-{2-[2-(2-methyl1--piperidinyl)ethyl]-1-benzofuran-5-yl}benzoyl)morpholine], `O=C(c1ccc(-c2ccc3oc(CCN4CC[C@@H](O)C4)cc3c2)cc1)N1CCOCC1` [Example 27, (3R)-1-(2-{5-[4-(4-morpholinylcarbonyl)phenyl]-1-benzofuran-2-yl}ethyl)-3-pyrrolidinol] is 2-fold higher in Ki: 27.2 nM for the first, 55.4 nM for the second. The first binds more tightly here.

First: O=C(c1ccc(-c2ccc3oc(CCN4CCOCC4)cc3c2)cc1)N1CCOCC1 [Example 32, 4-(4-{2-[2-(4-morpholine)ethyl]-1-benzofuran-5-yl}benzoyl)morpholine]
Second: O=C(c1ccc(-c2ccc3oc(CCN4CC=CCC4)cc3c2)cc1)N1CCOCC1 [Example 33, 4-(4-{2-[2-(3,6-dihydro-1(2H)-pyridinyl)ethyl]-1-benzofuran-5-yl}benzoyl)morpholine]
The Ki of the first is 8.2-fold higher: 265 nM for the first, 32.3 nM for the second. The second binds more tightly here.

`CN(CCc1cc2cc(-c3ccc(C(=O)N4CCOCC4)cc3)ccc2o1)C(C)(C)C` [Example 35, N-(tert-butyl)-N-methyl-N-(2-{5-[4-(4-morpholinylcarbonyl)phenyl]-1-benzofuran-2-yl}ethyl)amine] and `CC(C)N(C)CCc1cc2cc(-c3ccc(C(=O)N4CCOCC4)cc3)ccc2o1` [Example 36, N-isopropyl-N-methyl-N-(2-{5-[4-(4-morpholinylcarbonyl)phenyl]-1-benzofuran-2-yl}ethyl)amine] are within 1.5-fold of each other in Ki: 67.9 nM for the first, 52.1 nM for the second.

Going from `CC(C)CN(C)CCc1cc2cc(-c3ccc(C(=O)N4CCOCC4)cc3)ccc2o1` [Example 37, N-isobutyl-N-methyl-N-(2-{5-[4-(4-morpholinylcarbonyl)phenyl]-1-benzofuran-2-yl}ethyl)amine] to `CCN(CCc1cc2cc(-c3ccc(C(=O)N4CCOCC4)cc3)ccc2o1)C(C)C` [Example 38, N-ethyl-N-isopropyl-N-(2-{5-[4-(4-morpholinylcarbonyl)phenyl]-1-benzofuran-2-yl}ethyl)amine], the Ki falls from 248 nM to 26 nM (9.5-fold). The second binds more tightly here.

Compared with `CN(C)CCc1cc2cc(-c3ccc(C(=O)N4CCOCC4)cc3)ccc2o1` [Example 39, N,N-dimethyl-N-(2-{5-[4-(4-morpholinylcarbonyl)phenyl]-1-benzofuran-2-yl}ethyl)amine], `CCCN(CC)CCc1cc2cc(-c3ccc(C(=O)N4CCOCC4)cc3)ccc2o1` [Example 40, N-ethyl-N-(2-{5-[4-(4-morpholinylcarbonyl)phenyl]-1-benzofuran-2-yl}ethyl)-N-propylamine] is 4.6-fold lower in Ki: 148 nM for the first, 32.2 nM for the second. The second binds more tightly here.

`Cc1c(CCN2CCCC2)c(=O)oc2ccc(-c3ccc(C#N)cc3)cc12` [Example 41, 4-{4-methyl-2-oxo-3-[2-(1-pyrolidinyl)ethyl]-2H-chromen-6-yl}benzonitrile] and `Cc1c(CCN2CCCCC2)c(=O)oc2ccc(-c3ccc(C#N)cc3)cc12` [Example 42, 4-{4-methyl-2-oxo-3-[2-(1-piperidinyl)ethyl]-2H-chromen-6-yl}benzonitrile] are within 1.5-fold of each other in Ki: 51.5 nM for the first, 41.8 nM for the second.

`CCN(CC)CCc1c(C)c2cc(-c3ccc(C#N)cc3)ccc2oc1=O` [Example 43, 4-{3-[2-(diethylamino)ethyl]-4-methyl-2-oxo-2H-chromen-6-yl}benzonitrile] and `O=C(c1ccc(-c2ccc3oc(CCN4CCCC4)cc3c2)nc1)N1CCOCC1` [Example 44, 4-[(6-{2-[2-(1-pyrrolidinyl)ethyl]-1-benzofuran-5-yl}-3-pyridinyl)carbonyl]morpholine] are within 1.5-fold of each other in Ki: 14.6 nM for the first, 17.2 nM for the second.

First: O=C(c1ccc(-c2ccc3oc(CCN4CCCCC4)cc3c2)nc1)N1CCOCC1 [Example 46, 4-[(6-{2-[2-(1-piperidinyl)ethyl]-1-benzofuran-5-yl}-3-pyridinyl)carbonyl]morpholine]
Second: CCN(CC)CCc1cc2cc(-c3ccc(C(=O)N4CCOCC4)cn3)ccc2o1 [Example 47, 4-[(6-{2-[2-(N,N-diethyl)ethyl]-1-benzofuran-5-yl}-3-pyridinyl)carbonyl]morpholine]
The Ki of the first is 3.2-fold lower: 18.5 nM for the first, 59.8 nM for the second. The first binds more tightly here.

Compared with `C[C@@H]1CC[C@@H](C)N1CCc1cc2cc(-c3ccc(C(=O)N4CCOCC4)cn3)ccc2o1` [Example 49, 4-{[6-(2-{2-[(2R,5R)-2,5-dimethylpyrrolidinyl]ethyl}-1-benzofuran-5-yl)-3-pyridinyl]carbonyl}morpholine], `O=C(c1ccc(-c2ccc3oc(CCN4CCCCCC4)cc3c2)nc1)N1CCOCC1` [Example 51, 4-{[6-(2-{2-[1-azepanyl]ethyl}-1-benzofuran-5-yl)-3-pyridinyl]carbonyl}morpholine] is 4.7-fold lower in Ki: 14.4 nM for the first, 3.07 nM for the second.

`CC1CCN(CCc2cc3cc(-c4ccc(C(=O)N5CCOCC5)cn4)ccc3o2)CC1` [Example 52, 4-[(6-{2-[2-(4-methyl-1-piperidinyl)ethyl]-1-benzofuran-5-yl}-3-pyridinyl)carbonyl]morpholine] and `O=C(c1ccc(-c2ccc3oc(CCN4CCOCC4)cc3c2)nc1)N1CCOCC1` [Example 53, 4-[(6-{2-[2-(4-morpholinyl)ethyl]-1-benzofuran-5-yl}-3-pyridinyl)carbonyl]morpholine] are within 1.5-fold of each other in Ki: 162 nM for the first, 242 nM for the second.

First: CN(CCc1cc2cc(-c3ccc(C(=O)N4CCOCC4)cn3)ccc2o1)C(C)(C)C [Example 54, N-(tert-butyl)-N-methyl-N-(2-{5-[5-(4-morpholinylcarbonyl)-2-pyridinyl]-1-benzofuran-2-yl}ethyl)amine]
Second: CC(C)CN(C)CCc1cc2cc(-c3ccc(C(=O)N4CCOCC4)cn3)ccc2o1 [Example 55, N-isobutyl-N-methyl-N-(2-{5-[5-(4-morpholinylcarbonyl)-2-pyridinyl]-1-benzofuran-2yl}ethyl)amine]
The Ki of the first is 2.9-fold lower: 197 nM for the first, 575 nM for the second. The first binds more tightly here.
